Read-outs that look alike come from different tables or passages of the source.
Legend:
[1] = test system: puromycin-induced nephrosis model; experiment: Puromycin-induced nephrosis (2), postadministration (in vivo); design: species or system rat (male SD rats); settings: 200 mg/kg oral once a day from the day following puromycin; for Creatinine: control 0.82 ± 0.07; for Urine nitrogen: control 30.74 ± 10.95; for Creatinine clearance: control 824 ± 108
Experimental: Effect of the compounds of the present invention on an in vivo renal disease was studied using a puromycin-induced nephrosis model. A puromycin-induced renal failure model was prepared from rats in groups of 5-8 each (6 week-old male SD rats) fed with high-fat diet. High-fat diet feeding was started by free access to high-fat diet (cholesterol level 1.25%) from 7 days before puromycin treatment. Puromycin (puromycin aminonucleoside, SIGMA Chemical Co.) treatment was performed by intraperitoneal administration at a dose of 100 mg/kg. Test compounds were administered as a solution in soybean oil via oral route (4 ml/kg). Control group was orally administered soybean oil alone. Probucol and a water-soluble α-tocopherol analogue, Trolox, were used as reference control compounds. The compounds were orally administered once a day from the following day of the puromycin treatment. Renal functions were determined by using urine and blood samples. The volume of urine, urea nitrogen level and creatinine levels of serum and urine were evaluated to calculate creatinine clearance as an indication of renal functions.

[2] = test system: porcine kidney-derived LLC-PK1 cells; experiment: Protective effect against oxidized LDL-induced injury of porcine kidney-derived LLC-PK1 cells (1); format: cell-based; settings: Sus scrofa, LLC-PK1, 6 h, mean ± standard deviation, read-out: Cytoprotection rate (%)
Experimental: For the purpose of evaluating in vitro cytoprotective effect of the compounds of the present invention, a cytoprotective study was performed using porcine kidney-derived LLC-PK1 cells (ATCC-CRL-13921) injured by oxidized low-density lipoprotein (oxidized LDL).
Oxidized LDL was prepared by incubating 1 mg/ml of rabbit LDL in PBS (-) in the presence of 10 μM CuSO4 at 37° C. for 24 hours. Cell culture was carried out by plating 1.25×10^4 cells/250 μl/well on a 48-well plate containing M199 medium containing 3% FBS. Test compounds were dissolved or suspended in ethanol and added to the wells in an amount of 1.25 μl/well to a concentration of 0.1, 1 or 10 μM in each well. After 16 hours or immediately after the addition of the compounds, oxidized LDL was added to the wells. Probucol, α-tocopherol and Trolox which is a water-soluble analogue of α-tocopherol were used as reference control compounds. Oxidized LDL was diluted twice with saline and then added to the wells in an amount of 62.5 μl/well to a concentration of 100 μg/ml and the cells were cultured for 6 hours after addition of the oxidized LDL. Then, 162.5 μl/well of the culture medium were collected and measured for the lactate dehydrogenase (LDH) level (LD-L: SIGNA DIAGNOSTICS) having leaked into the medium.
The magnitude of cytoprotective effect was expressed as the cytoprotection rate which was determined by calculating the data assuming that the magnitude in wells containing oxidized LDL is 0% and that the magnitude in wells containing saline is 100%.

[3] = literature; cited from earlier work
[4] = compound added 16 hours before adding oxidized LDL
[5] = compound added immediately before adding oxidized LDL

SMILES	Creatinine [1] [mg/dL]	Urine nitrogen [1] [mg/dL]	Creatinine clearance [1] [mL/day]	inhibition at 0.1 µM [2, 4] [%]	inhibition at 0.1 µM [2, 5] [%]	inhibition at 1 µM [2, 4] [%]	inhibition at 1 µM [2, 5] [%]	inhibition at 10 µM [2, 4] [%]	inhibition at 10 µM [2, 5] [%]	effect on renal disease models / renal functions (in words) [3]
CC(C)(C)c1cc2c(c(C(C)(C)C)c1O)CC(Cc1ccccc1)(Cc1ccccc1)O2 [Example 16, 4,6-Di-t-butyl-2,2-dibenzyl-5-hydroxy-2,3-dihydrobenzofuran]	0.73 ± 0.06	31.82 ± 10.84	925	12 ± 7.5	-36.7 ± 6.6	94.5 ± 4.9	74.4	98.3 ± 0.3	99.6 ± 0.1	–
Cc1c(C)c2c(c(C)c1O)CCC(C)(CCCC(C)CCCC(C)CCCC(C)C)O2 (stereo not drawn) [α-tocopherol, reference compound]	–	–	–	7.2 ± 2.2	-2.8	72.1 ± 13.8	8.2 ± 5.7	98.9 ± 1	2.7 ± 2.3	its effect is not sufficient
CC(C)(Sc1cc(C(C)(C)C)c(O)c(C(C)(C)C)c1)Sc1cc(C(C)(C)C)c(O)c(C(C)(C)C)c1 [Probucol, probucol, reference compound]	0.98 ± 0.13	37.53 ± 7.53	838 ± 187	22.5 ± 15.1	-1.8 ± 9.7	36.4 ± 13.3	0.3	99.7 ± 1.1	17 ± 7.8	–
CC(C)(C)c1cc2c(c(C(C)(C)C)c1O)CC1(CCCCCC1)O2 [Example 20, 4,6-Di-t-butyl-5-hydroxy-2,3-dihydrobenzofuran-2-spiro-1'-cycloheptane]	0.61 ± 0.08	25.40 ± 10.28	1144 ± 172	-11.3 ± 8.5	-15.8 ± 8	98.6 ± 1.2	99.9	106 ± 1.2	102 ± 4.7	–
Cc1c(C)c2c(c(C)c1O)CCC(C)(C(=O)O)O2 (stereo not shown) [Trolox, reference compound]	0.96 ± 0.14	31.91 ± 11.93	660	0.4 ± 1.3	0	6.4 ± 10.6	-7.1	17.5 ± 16.9	-4.9 ± 6.3	–
